Reference: US20260345641A1, “COMPOSITIONS AND USES THEREOF” (Algorae Pharmaceuticals Ltd, priority 2023, published 2026)

System: SH-S5Y5 neuroblastoma cells
Experiment: Cell viability (MTT) in response to Aβ, in vitro model of Alzheimer's disease
Assay type: cell-based
Conditions: 20 μM Aβ, 24 h
Text: The SH-S5Y5 neuroblastoma cell line was used for pre-clinical analysis. The SH-S5Y5 cell line is commonly used as a model for neurodegenerative disorders as the cells can be converted to various types of functional neurons by the addition of specific compounds (see, e.g., Xicoy et al., 2017, Molecular Neurodegeneration, 12: 10). In addition, the SH-S5Y5 cell line has been used widely in experimental neurological studies, including analysis of neuronal differentiation, metabolism, and function related to neurodegenerative processes, neurotoxicity and neuroprotection (see, e.g., Datki et al., 2003, Brain Research Bulletin, 62(3): 22-229; and Xie et al., 2010, Chinese Medical Journal, 123(8): 1086-1092).
100 μL MTT reagent was added to each well (final concentration 0.5 mg/mL). Cells were then incubated at 37 °C, 5% CO2 for 4 hours. Solubilization buffer (100 μL) was then added to each well and further incubated at 37 °C, 5% CO2 for 24 hours. Absorbance was then measured by spectrophotometer at 550-600 nm and background corrected at 650 nm.
Amyloid-β (Aβ; 1 mg) was dissolved in 2 mL of 1,1,1,3,3,3-hexafluoro-2-propanol (HFIP). An additional 200 μL of HFIP was then added due to volatility. The Aβ was sealed with parafilm and vortexed for 30 seconds before aliquoting at 100 μL per 1.5 mL tube. HFIP was then evaporated in fume hood for 8 hours. Tubes were then sealed with lid and parafilm and stored at −80 °C. Prior to use, Aβ was reconstituted in DMSO to a final volume of 10% v/v for 10-15 min at RT and vortexed every 3-5 min. F-12 medium was then added to a final volume of 90% v/v. Aβ was then stored at 4 °C for 24 hours and vortexed before use.
Cells were seeded in 96-well microplates and incubated 37 °C, 5% CO2 for 24 hours.

## COc1cc2c(cc1OC)C(=O)C(CC1CCN(Cc3ccccc3)CC1)C2 (centres unmarked) [Donepezil]
Donepezil 2.5 μM
  Cell viability as measured by MTT: −0.036
Donepezil 5 μM
  Cell viability as measured by MTT: −0.021
Donepezil 10 μM
  Cell viability as measured by MTT: 0.021
Donepezil 20 μM
  Cell viability as measured by MTT: −0.011
Donepezil 30 μM
  Cell viability as measured by MTT: −0.013
